Reference: patent US20230040415A1 (PureTech LYT 100, Inc., priority 2020, published 2023)
Where two headings read alike, the source gives them in different places.

Legend:
[1] = Repeat dose oral toxicity and toxicokinetics study in Sprague Dawley rats; details: for dose proportionality of AUC0-24 / dose proportionality of Cmax: SD-560 250 to 750 mg/kg, Groups 2 to 4; for exposure in rat relative to human: male rat after 28 days of daily dosing vs human
Procedure: The protocol was amended to add additional TK male animals in Group 6 for Day 1 collection of TK samples at 875 mg/kg.
Blood samples were collected from 3 subsets of 3 animals/sex on Day 1 and Day 28 at predose, 0.25, 0.5, 1, 2, 4, 8 and 24 hours (hr) post-dose for groups 2 to 6 and from one subset of 3 animals/sex at 0.25 hr post-dose for the vehicle group (group 1). […] Non-compartmental analysis (NCA) of plasma concentration data was conducted using Phoenix® WinNonlin®, version 8.0.

[2] = Multiple ascending dose (MAD) study Part 1, plasma pharmacokinetics
Procedure: All Part 1 cohorts will be dosed every 12 hours with food for 5 days.
During the treatment period (Day 1 through Day 5), subjects will be administered their assigned study medication BID, every 12 h±0.25 h (with approximately 240 mL of non-carbonated water), 30 minutes after the start of consumption of their standardised breakfast or dinner (12 h apart). A standardised lunch will be served >4 h post breakfast and >4 h prior to dinner. An evening snack will be served >3 h following evening study medication administration. No additional fluids will be allowed during the 1 h pre- and post-doses. On Day 6, subjects will replicate mealtimes as scheduled on Day 1-5. To ensure study drug dosing every 12 hours, here is an example of meal and dosing schedule in Part 1: • Breakfast: meal to be served 30 mins prior to AM dosing. Breakfast must be completed within 30 mins of start time. • Lunch: meal to be served at least 4 h post-AM study drug dose. • Dinner: meal to be served at least 11.5 h post-AM dose and served 30 minutes prior to PM study drug dose. • Evening snack: Snack to be served at least 15 h post-AM dose (at least 3 h post-PM dose).
In Part 1, blood samples (4 mL each) for PK will be collected for Cohorts 1, 2, 3, 4, and 6 at specified times (hours) at each as follows: • Day 1 and Day 5: 0 (pre-dose), 0.5, 1, 1.5, 2, 2.5, 3, 3.5, 4, 6, 8, 12 (pre-dose), 13, 14, 15, 16, 18 h • Day 2, Day 3 and Day 4: 0 (pre-morning-dose) and 12 h (pre-evening-dose) • Day 6: 12, 18, 24 and 36 h post-last dose • Day 7: 48 h (post-last dose)
Pharmacokinetics for Day 1 to 3 in Part 2 (fed state) will be compared to PK for Day 1 to Day 3 in Part 2 (fasted state). Plasma PK parameters (non-compartmental or compartmental analysis as appropriate) will include, but are not limited to: • Following single dose: Tmax, tlag, Cmax, AUC0-4, AUC0-last, AUC0-inf, lambda z, % AUCext, CL/F, Vz/F, Cmax/D, AUC0-last/D, AUC0-inf/D and MRT (D is dose) • After repeated doses: Ctrough, Ctrough/D • Following repeated doses on last day: Tmax, Cmax, Cavg, tlag, t1/2, AUC0-4, AUC0-last, AUC0-inf, lambda z, % AUCext, CLss/F, Vzss/F, MRT, PTF, Rac(AUC), Rac(Cmax), Cmax/D, AUClast/D, AUC0-inf/D and Rac (accumulation ratio) Part 3 (Patients with Secondary Lymphoedema Post-Axillary/Post-Sentinel Node Dissection)

[3] = Single-dose crossover clinical trial, 801 mg LYT-100 vs pirfenidone, plasma pharmacokinetics; details: for Cmax / % AUC extrap / AUC0-t / AUC(inf) / Kel / t1/2 / tmax: fed, analyte = label; for Cmax / % AUC extrap / AUC0-t / AUC(inf) / Kel / t1/2: mean; for Cmax: n = 24; for tmax: median
Source text: Following screening, eligible healthy volunteer subjects were admitted to a single clinical study site and were randomized to 1 of 2 treatment sequences. […] In each period, a standardized breakfast was provided to subjects prior to administration of study drug (to compare the PK profiles in the clinically relevant fed state) and plasma samples were collected over a 48-hour period after dosing for evaluation of PK. Dosing between the 2 periods was separated by a minimum of 7 days. Subjects completed the study upon completion of the 48-hour post-dose assessments following dosing period 2.
All capsules were identical in size, shape, and external color.
The mean Cmax values are computed from each individual subjects Cmax value (which could occur at different Tmax times for each individual), i.e., the mean Cmax value reported in the PK parameter table is not the Cmax for a mean concentration-time curve.

[4] = parameters: AUC, Fasted / AUC, Fed: unit not given beside the values; details: cited from earlier work; for share of recovered drug material in urine excreted as label: humans, oral pirfenidone
[5] = Food effect study Part 2, single 500 mg dose fed vs fasted; type: in vivo, human
Procedure: The comparison will be based on Day 1, Day 2 and Day 3 PK plasma samples after the first dose of study drug on Day 1 under fast and fed conditions of Part 2.
Subjects will be admitted to the CRU on Day −1 and will fast overnight for at least 10 h.

[6] = cited from earlier work
[7] = Day 1, Female, label = Group 4 analyte vs its non-deuterated counterpart
[8] = FIG. 23 (Cohort 6, 1000 mg BID)
[9] = LYT-100 100, 250, 500, 750 mg BID cohorts (FIG. 19)
[10] = LYT-100 @500 mg single dose, analyte = label
[11] = LYT-100 @500 mg, 5-CO2 metabolite
[12] = Treatment = LYT-100, single 801 mg oral dose
[13] = Treatment = LYT-100, single 801 mg
[14] = Treatment = Pirfenidone, single 801 mg oral dose
[15] = Treatment = Pirfenidone, single 801 mg

SMILES: [2H]C([2H])([2H])c1ccc(=O)n(-c2ccc(O)cc2)c1 [LYT-103, d3-4′-hydroxy-pirfenidone]
- AUC ratio Group 4 (LYT-100 at 750 mg/kg) / Group 5 (SD-559 at 750 mg/kg) [1, 7]: 21.77
- AUC ratio Group 4 (LYT-100 at 750 mg/kg) / Group 5 (SD-559 at 750 mg/kg) ([1]; Day 1, Male): 34.51
- AUC ratio Group 4 (LYT-100 at 750 mg/kg) / Group 5 (SD-559 at 750 mg/kg) ([1]; Day 28, Female): 38.04
- dose proportionality of AUC0-24 [1]: dose proportionally
- dose proportionality of Cmax [1]: less than dose proportional
- average ratio of metabolite to the parent (M/P) by AUC [2, 8]: 0.0037 (0.0030-0.0058)
- average ratio of metabolite to the parent (M/P) by AUC [2, 9]: 0.0017 (0.0012-0.0022)
- quantifiability of metabolite in human ([3]; after LYT-100): not quantifiable

SMILES: O=C(O)c1ccc(=O)n(-c2ccccc2)c1 [LYT-105, 5-carboxy-pirfenidone]
- plasma exposure relative to exposure to pirfenidone ([4]; Huang, 2013): approximately 50%
- share of recovered drug material in urine excreted as label [4]: > 95%
- AUC ratio Group 4 (LYT-100 at 750 mg/kg) / Group 5 (SD-559 at 750 mg/kg) [1, 7]: 0.49
- AUC ratio Group 4 (LYT-100 at 750 mg/kg) / Group 5 (SD-559 at 750 mg/kg) ([1]; Day 1, Male): 0.45
- AUC ratio Group 4 (LYT-100 at 750 mg/kg) / Group 5 (SD-559 at 750 mg/kg) ([1]; Day 28, Female): 0.71
- AUC ratio Group 4 (LYT-100 at 750 mg/kg) / Group 5 (SD-559 at 750 mg/kg) ([1]; Day 28, Male): 0.57
- lower Cmax and exposure than SD-789 formed from SD-559 ([1]; SD-560 750 mg/kg vs SD-559 750 mg/kg): approximately 50%
- dose proportionality of AUC0-24 [1]: dose proportional
- dose proportionality of Cmax [1]: approximately dose proportional
- exposure in rat relative to human [1]: ~7 fold
- AUC, % Change Fed vs Fasted [5, 10]: < 5%
- Cmax, % Change Fed vs Fasted [5, 10]: < 5%
- Tmax, Fasted [5, 11]: 0.75 h
- Tmax, Fed [5, 11]: 1 h
- average ratio of metabolite to the parent (M/P) by AUC [2, 8]: 0.56 (0.44-0.66)
- average ratio of metabolite to the parent (M/P) by AUC [2, 9]: 0.45
- average ratio of metabolite to the parent (M/P) by AUC ([2]; LYT-100 100, 250, 500, 750 mg BID cohorts (FIG. 19), listed as SD-789): 0.45 (0.37-0.50)
- dose dependence of AUC96-108 ([2]; across all dose Cohorts, 100-1000 mg BID): linear dose proportionality
- Cmax [3, 12]: 3970 ng/mL
- % AUC extrap [3, 13]: 1.13%
- AUC0-t [3, 13]: 23090 ng·h/mL
- AUC(inf) [3, 13]: 23350 ng·h/mL
- Kel [3, 13]: 0.262 h⁻¹
- t1/2 [3, 13]: 2.91 h
- tmax [3, 13]: 2.50 h
- Cmax [3, 14]: 5241 ng/mL
- % AUC extrap [3, 15]: 0.843%
- AUC0-t [3, 15]: 26932 ng·h/mL
- AUC(inf) [3, 15]: 27159 ng·h/mL
- Kel [3, 15]: 0.288 h⁻¹
- t1/2 [3, 15]: 2.55 h
- tmax [3, 15]: 3.00 h
- Cmax reduction of 5-carboxy-pirfenidone after LYT-100 relative to pirfenidone ([3]; single 801 mg dose each): 25%

SMILES: [2H]C([2H])(O)c1ccc(=O)n(-c2ccccc2)c1 [LYT-110, 5-(hydroxymethyl-d2)-pirfenidone]
- exposure and Cmax vs non-deuterated metabolite SD-788 from SD-559 ([1]; 750 mg/kg, all days, both genders): almost twice
- AUC ratio Group 4 (LYT-100 at 750 mg/kg) / Group 5 (SD-559 at 750 mg/kg) [1, 7]: 2.50
- AUC ratio Group 4 (LYT-100 at 750 mg/kg) / Group 5 (SD-559 at 750 mg/kg) ([1]; Day 1, Male): 2.22
- AUC ratio Group 4 (LYT-100 at 750 mg/kg) / Group 5 (SD-559 at 750 mg/kg) ([1]; Day 28, Female): 2.59
- AUC ratio Group 4 (LYT-100 at 750 mg/kg) / Group 5 (SD-559 at 750 mg/kg) ([1]; Day 28, Male): 2.54
- dose proportionality of AUC0-24 [1]: dose proportional
- dose proportionality of Cmax [1]: dose proportional
- exposure in rat relative to human [1]: ~1600 fold
- average ratio of metabolite to the parent (M/P) by AUC [2, 8]: 0.0028 (0.0018-0.0038)
- average ratio of metabolite to the parent (M/P) by AUC [2, 9]: 0.0025 (0.0020-0.0029)
- Cmax [3, 12]: 20.6 ng/mL
- % AUC extrap [3, 13]: 10.1%
- AUC0-t [3, 13]: 111 ng·h/mL
- AUC(inf) [3, 13]: 124 ng·h/mL
- Kel [3, 13]: 0.294 h⁻¹
- t1/2 [3, 13]: 2.76 h
- tmax [3, 13]: 2.50 h

SMILES: O=c1ccc(CO)cn1-c1ccccc1 [LYT-111, 5-hydroxymethyl-pirfenidone]
- Cmax [3, 14]: 17.1 ng/mL
- % AUC extrap [3, 15]: 10.3%
- AUC0-t [3, 15]: 75.8 ng·h/mL
- AUC(inf) [3, 15]: 89.7 ng·h/mL
- Kel [3, 15]: 0.367 h⁻¹
- t1/2 [3, 15]: 2.04 h
- tmax [3, 15]: 2.50 h
- overall systemic exposure (AUC) of metabolite greater after LYT-100 than after pirfenidone ([3]; single 801 mg dose each): approximately 50%

SMILES: Cc1ccc(=O)n(-c2ccccc2)c1 [Pirfenidone, 5-methyl-1-phenyl-1H-pyridin-2-one]
- AUC, Fasted ([4]; Pirfenidone @800 mg): 69.7
- AUC, Fed ([4]; Pirfenidone @800 mg): 59.3
- Tmax, % Change Fed vs Fasted ([4]; Pirfenidone @800 mg): 500%
- Tmax, Fasted ([4]; Pirfenidone @800 mg): 0.5 h
- share of recovered drug material in urine excreted as label [4]: less than 1%
- diarrhea, frequency ([6]; Lancaster et al. 2017, IPF): ≤ 27.6 per 100PEY
- fatigue, frequency ([6]; Lancaster et al. 2017, IPF): ≤ 52.4 per 100PEY
- nausea, frequency ([6]; Lancaster et al. 2017, IPF): ≤ 62.1 per 100 PEY
- adverse drug reactions leading to permanent treatment discontinuation ([6]; PASSPORT study, Cottin et al. 2018): 28.7%
- patients with an adverse event ([6]; compassionate use program, Raghu & Thickett 2013): 44%
- patients with ADR leading to discontinuation ([6]; patients aged <65 years): 7.5%
- patients with ADR leading to dose modification/interruption ([6]; patients aged <65 years): 18.0%
- patients with ADR leading to discontinuation ([6]; patients aged ≥80 years): 20.9%
- patients with ADR leading to dose modification/interruption ([6]; patients aged ≥80 years): 32.7%
- elevations of AST and ALT to >3× ULN ([6]; phase III trials): 3.2%
- reported AEs that were GI-related ([6]; single-center retrospective study of 351 patients): 75%
